Assay: xn = mol fraction of the nth substance listed
Conditions: 101 kPa, Liquid, NMR spin-echo technique

OCC(F)(F)F [2,2,2-trifluoroethanol] + O
binary diffusion coefficient [m2/s]
Conditions	283.2 K	288.2 K	293.2 K	298.2 K	303.2 K	308.2 K	313.2 K
x1 = 0.000511	7.32e-10	8.43e-10	1.02e-09	1.13e-09	1.28e-09	1.44e-09	1.71e-09
x1 = 0.001034	7.18e-10	8.44e-10	9.98e-10	1.11e-09	1.27e-09	1.46e-09	1.71e-09
x1 = 0.004989	6.91e-10	8.01e-10	9.67e-10	1.1e-09	1.23e-09	1.41e-09	1.66e-09
x1 = 0.009331	6.69e-10	7.62e-10	9.35e-10	1.1e-09	1.2e-09	1.36e-09	1.57e-09
x1 = 0.01008	6.68e-10	7.87e-10	8.96e-10	1.06e-09	1.23e-09	1.37e-09	1.57e-09
x1 = 0.04965	4.57e-10	5.52e-10	7.24e-10	8.51e-10	9.71e-10	1.1e-09	1.28e-09
